Source: patent US20090263324A1, “Animal Model With Induced Arrhythmia” (priority 2005, published 2009)

Experiments:
[1] = test system: chronic atrioventricular block monkeys; experiment: Evaluation of QT interval prolongation by dl-sotalol (Holter electrocardiogram); assay type: in vivo, cynomolgus monkey; conditions: oral administration of 5 mg/kg
Description: QTc interval (ms) is a value obtained by correcting the fluctuation of QT interval due to heart rate by a numerical formula, and can be obtained by the following equation.
QTc=QT÷^3√{square root over ( )} (60÷ventricular rhythm)
Here, ventricular rhythm refers to the frequency of excitation of the ventricle in a complete atrioventricular block, and the unit of measurement is beat/minute.
Next, a comparison is made between the QT interval or QTc interval in the recipient animal and the QT interval or QTc interval in the same animal but before administration. QT interval or QTc interval prolongation can be determined by (value after administration)−(value before administration).
As the control solution, 0.5% methylcellulose solution was orally administered, and changes of electrocardiogram were examined; on a later day, 5 mg/kg dl-sotalol (group-3 antiarrhythmic agent) was orally administered to the same animals, and electrocardiogram was measured.

[2] = test system: chronic atrioventricular block monkey model; experiment: Examination for onset of Torsades de pointes (TdP) with dl-sotalol administration; assay type: in vivo, cynomolgus monkey; conditions: five animals
Procedure: A Holter electrocardiograph was attached to each of five animals of the chronic atrioventricular block monkey model obtained in Example 1; 1, 3, 5 or 10 mg/kg dl-sotalol was orally administered to each animal, and electrocardiogram after administration was monitored.

CC(C)NCC(O)c1ccc(NS(C)(=O)=O)cc1 (racemic) [dl-sotalol]
time after administration with statistically significant QTc action compared to the solvent group [1]: 1 to 4 h
QTc interval prolongation ([1]; Holter electrocardiograph for 24 hours, compared to the solvent group): QTc interval prolongation was observed
animals in which TdP occurred ([2]; 5 mg/kg orally): 4 of the 5 animals
animals in which TdP occurred ([2]; 10 mg/kg orally): all animals
